Source: patent publication US20020173538A1, “Method for sensitizing cancer cells to cancer therapies with a mevalonate-reducing compound” (priority 2000, published 2002)

Columns and labels:
[1] = MTT cell viability assay, mouse hepatocytes (serum-free RPMI-1640); format: cell-based; details: BALB/c, isolated mouse hepatocytes
[2] = test system: Hep 3B/T2 cells; experiment: Tumor growth of Hep 3B/T2 cells in nude mice; format: in vivo, BALB/c-nu/nu nude mice
Description: The descriptive statistics were summarized as mean±STD. For statistical analysis, Student's t-test was used to determine significance of mean differences between groups.

[3] = test system: Hep 3B cells; experiment: Cell cycle determination by flow cytometry, Hep 3B; format: cell-based, human; details: cell line not given
[4] = test system: Hep 3B/T2 cells; experiment: Tumor growth of Hep 3B/T2 cells in nude mice; format: in vivo, BALB/c-nu/nu nude mice; remark: listed apart in the source
[5] = MTT cell viability assay, Hep G2 cells (serum-free DMEM); details: human, Hep G2 cells, Cell viability
Description: Human hepatoma cell lines Hep G2 and Hep 3 were chosen as the in vitro models of hepatocytes and hepatoma, respectively.

[6] = Cycle 1 (Day 42), LOV 37.5 mg/kg/day p.o. days 28-34 and 49-55 and/or taxol 120 μg/kg/2 day i.p. day 36, 38, 40, 57, 59, 61
[7] = Cycle 2 (Day 63), LOV 37.5 mg/kg/day p.o. days 28-34 and 49-55 and/or taxol 120 μg/kg/2 day i.p. day 36, 38, 40, 57, 59, 61

CC[C@H](C)C(=O)O[C@H]1C[C@@H](C)C=C2C=C[C@H](C)[C@H](CC[C@@H]3C[C@@H](O)CC(=O)O3)[C@H]21 [Lovastatin, lovastatin]
viability at 72 h, 1 μM [1]: 91.9 ± 2.7% | viability at 72 h, 2 μM [1]: 85 ± 4.5% | viability at 72 h, 5 μM [1]: 84.7 ± 13.3% | viability at 72 h, 10 μM [1]: 80.4 ± 9.9% | viability at 72 h, 20 μM [1]: 74.9 ± 5.1% | viability at 72 h, 50 μM [1]: 39.1 ± 10.6% | Tumor size [2, 6]: 0.533 cm^3 | Tumor size [2, 7]: 1.263 cm^3 | percentage of inhibition of tumor size [2, 7]: (−49.5% | Tumor size ([2]; Day 15, LOV 75 mg/kg/day p.o. days 8-14 and/or taxol 120 μg/kg/day i.p. days 15-19, n = 3): 0.050 cm^3 | Tumor size ([2]; Day 20, LOV 75 mg/kg/day p.o. days 8-14 and/or taxol 120 μg/kg/day i.p. days 15-19, n = 3): 0.051 cm^3 | Tumor size ([2]; Day 23, LOV 75 mg/kg/day p.o. days 8-14 and/or taxol 120 μg/kg/day i.p. days 15-19, n = 3): 0.059 cm^3 | Tumor size (1 × w^2 × 0.52 cm^3) Day 28 ([2]; Day 28 after inoculation of 1 × 10^7 Hep 3B/T2 cells in male BALB/c-nu/nu nude mice, p.o. lovastatin 37.5 mg/kg/day (days 28-34, 49-55) and/or i.p. taxol 120 μg/kg/2 day (days 36, 38, 40, 57, 59, 61), mean ± SEM): 0.170 cm^3 | Tumor size ([2]; after two cycles: lovastatin fed 7 days, then paclitaxel injected 3 days (FIG. 38), mean±STD): 1.26±1.82 cm^3 | cell cycle arrest stage [3]: G0/G1 arrest | percentage of inhibition of tumor size [4, 6]: (−43.6% | Tumor size ([4]; Day 8, LOV 75 mg/kg/day p.o. days 8-14 and/or taxol 120 μg/kg/day i.p. days 15-19, n = 3): 0.111 cm^3 | Tumor size ([4]; Day 11, LOV 75 mg/kg/day p.o. days 8-14 and/or taxol 120 μg/kg/day i.p. days 15-19, n = 3): 0.048 cm^3 | Tumor size ([4]; Day 17, LOV 75 mg/kg/day p.o. days 8-14 and/or taxol 120 μg/kg/day i.p. days 15-19, n = 3): 0.050 cm^3 | Tumor size ([4]; Day 26, LOV 75 mg/kg/day p.o. days 8-14 and/or taxol 120 μg/kg/day i.p. days 15-19, n = 3): 0.121 cm^3 | Tumor size ([4]; Day 29, LOV 75 mg/kg/day p.o. days 8-14 and/or taxol 120 μg/kg/day i.p. days 15-19, n = 3): 0.154 cm^3 | Tumor size (1 × w^2 × 0.52 cm^3) Day 35 ([4]; Day 35 after inoculation, p.o. lovastatin 37.5 mg/kg/day (days 28-34, 49-55) and/or i.p. taxol 120 μg/kg/2 day (days 36, 38, 40, 57, 59, 61), mean ± SEM): 0.200 cm^3 | Tumor size (1 × w^2 × 0.52 cm^3) Day 38 ([4]; Day 38 after inoculation, p.o. lovastatin 37.5 mg/kg/day (days 28-34, 49-55) and/or i.p. taxol 120 μg/kg/2 day (days 36, 38, 40, 57, 59, 61), mean ± SEM): 0.301 cm^3 | Tumor size (1 × w^2 × 0.52 cm^3) Day 42 ([4]; Day 42 after inoculation, p.o. lovastatin 37.5 mg/kg/day (days 28-34, 49-55) and/or i.p. taxol 120 μg/kg/2 day (days 36, 38, 40, 57, 59, 61), mean ± SEM): 0.533 cm^3 | Tumor size (1 × w^2 × 0.52 cm^3) Day 49 ([4]; Day 49 after inoculation, p.o. lovastatin 37.5 mg/kg/day (days 28-34, 49-55) and/or i.p. taxol 120 μg/kg/2 day (days 36, 38, 40, 57, 59, 61), mean ± SEM): 0.665 cm^3 | Tumor size (1 × w^2 × 0.52 cm^3) Day 56 ([4]; Day 56 after inoculation, p.o. lovastatin 37.5 mg/kg/day (days 28-34, 49-55) and/or i.p. taxol 120 μg/kg/2 day (days 36, 38, 40, 57, 59, 61), mean ± SEM): 0.995 cm^3 | Tumor size (1 × w^2 × 0.52 cm^3) Day 63 ([4]; Day 63 after inoculation, p.o. lovastatin 37.5 mg/kg/day (days 28-34, 49-55) and/or i.p. taxol 120 μg/kg/2 day (days 36, 38, 40, 57, 59, 61), mean ± SEM): 1.263 cm^3 | Tumor size ([4]; end of one cycle of treatment, n=6 (FIG. 41)): 2.24±2.38 cm^3 | viability at 48 h, 1 μM ([5]; LOV 1 μM, 48 hr): 91.8 ± 2.1% | viability at 72 h, 1 μM ([5]; LOV 1 μM, 72 hr): 88.7 ± 1.3% | viability at 48 h, 2 μM ([5]; LOV 2 μM, 48 hr): 90.7 ± 1.5% | viability at 72 h, 2 μM ([5]; LOV 2 μM, 72 hr): 86.2 ± 1.9% | viability at 48 h, 5 μM ([5]; LOV 5 μM, 48 hr): 87.2 ± 3.1% | viability at 48 h, 5 μM ([5]; LOV 5 μM, 48 hr, Table 4): 87.2 ± 3.1% | viability at 72 h, 5 μM ([5]; LOV 5 μM, 72 hr): 80.9 ± 4.4% | viability at 72 h, 5 μM ([5]; LOV 5 μM, 72 hr, Table 4): 80.9 ± 4.4% | viability at 96 h, 5 μM ([5]; LOV 5 μM, 96 hr): 63.2 ± 2% | viability at 120 h, 5 µM ([5]; LOV 5 μM, 120 hr): 55.1 ± 5% | viability at 48 h, 10 μM ([5]; LOV 10 μM, 48 hr): 85.8 ± 2.7% | viability at 48 h, 10 μM ([5]; LOV 10 μM, 48 hr, Table 4): 85.8 ± 2.7% | viability at 72 h, 10 μM ([5]; LOV 10 μM, 72 hr): 78.7 ± 5.3% | viability at 72 h, 10 μM ([5]; LOV 10 μM, 72 hr, Table 4): 78.7 ± 5.3% | viability at 96 h, 10 μM ([5]; LOV 10 μM, 96 hr): 55.1 ± 5% | viability at 120 h, 10 µM ([5]; LOV 10 μM, 120 hr): 33.8 ± 3.8% | viability at 48 h, 20 μM ([5]; LOV 20 μM, 48 hr): 79.9 ± 2.7% | viability at 72 h, 20 μM ([5]; LOV 20 μM, 72 hr): 75.3 ± 4.2% | viability at 72 h, 50 μM ([5]; LOV 50 μM 48 hr, then LOV 50 μM without MVA another 24 hr): 57.8 ± 6.2% | viability at 96 h, 50 µM ([5]; LOV 50 μM 48 hr, then LOV 50 μM without MVA another 48 hr): 12.7 ± 2.6% | viability at 120 h, 50 µM ([5]; LOV 50 μM 48 hr, then LOV 50 μM without MVA another 72 hr): 4 ± 0.6% | viability at 48 h, 50 μM ([5]; LOV 50 μM, 48 hr): 73.1 ± 3.2% | viability at 72 h, 50 μM ([5]; LOV 50 μM, 72 hr): 58.2 ± 4.2% | viability at 72 h, 1 μM ([5]; lovastatin 1 μM, 72 hr): 88.7 ± 1.3% | viability at 72 h, 2 μM ([5]; lovastatin 2 μM, 72 hr): 86.2 ± 1.9% | viability at 48 h, 5 μM ([5]; lovastatin 5 μM 48 hr, then no CAPE 48 hr): 75.2 ± 1.6% | viability at 48 h, 5 μM ([5]; lovastatin 5 μM 48 hr, then no taxol 48 hr): 85.8 ± 4.5% | viability at 72 h, 5 μM ([5]; lovastatin 5 μM 72 hr, then no taxol 48 hr): 81.3 ± 3.8% | viability at 72 h, 5 μM ([5]; lovastatin 5 μM 72 hr, then no taxol 72 hr): 67.2 ± 0.5% | viability at 72 h, 5 μM ([5]; lovastatin 5 μM alone, 72 hr, Table 23): 66.8 ± 1.5% | viability at 72 h, 5 μM ([5]; lovastatin 5 μM, 72 hr): 80.9 ± 4.4% | viability at 48 h, 10 μM ([5]; lovastatin 10 μM 48 hr, then no CAO 48 hr): 75 ± 3.3% | viability at 48 h, 10 μM ([5]; lovastatin 10 μM 48 hr, then no CAPE 48 hr): 66.7 ± 2.4% | viability at 10 µM ([5]; lovastatin 10 μM 48 hr, then no GL-M1 48 hr): 76.9 ± 2.6% | viability at 48 h, 10 μM ([5]; lovastatin 10 μM 48 hr, then no taxol 48 hr): 69.1 ± 3.1% | viability at 72 h, 10 μM ([5]; lovastatin 10 μM 72 hr, then no taxol 48 hr): 54.7 ± 5.9% | viability at 72 hr, 10 μM ([5]; lovastatin 10 μM 72 hr, then no taxol 72 hr): 48 ± 2.9%
